Assay results taken from US20150157739A1, “Imidazo[2,1]thiazol-3-one derivatives” (Hoffmann-La Roche Inc., priority 2012, published 2015).

What was measured:
[1] = biological target: T1, aggregated recombinant human-microtubule associated protein Tau (Homo sapiens, UniProt P10636); assay: Thiazin-red R displacement fluorescence assay on aggregated Tau; assay type: binding; conditions: displacement of Thiazin-red R from aggregated Tau; compound 0.3 nM to 10000 nM; 30 min room temperature; Ex 531 nm/Em 595 nm
T1 construct: Recombinant human-microtubule associated protein Tau purified from E. coli is aggregated at a concentration of 5 μM with Arachidonic Acid (100 μM) in Tris 10 mM pH8, 24 h at 37° C
T1 sequence (P10636 whole entry): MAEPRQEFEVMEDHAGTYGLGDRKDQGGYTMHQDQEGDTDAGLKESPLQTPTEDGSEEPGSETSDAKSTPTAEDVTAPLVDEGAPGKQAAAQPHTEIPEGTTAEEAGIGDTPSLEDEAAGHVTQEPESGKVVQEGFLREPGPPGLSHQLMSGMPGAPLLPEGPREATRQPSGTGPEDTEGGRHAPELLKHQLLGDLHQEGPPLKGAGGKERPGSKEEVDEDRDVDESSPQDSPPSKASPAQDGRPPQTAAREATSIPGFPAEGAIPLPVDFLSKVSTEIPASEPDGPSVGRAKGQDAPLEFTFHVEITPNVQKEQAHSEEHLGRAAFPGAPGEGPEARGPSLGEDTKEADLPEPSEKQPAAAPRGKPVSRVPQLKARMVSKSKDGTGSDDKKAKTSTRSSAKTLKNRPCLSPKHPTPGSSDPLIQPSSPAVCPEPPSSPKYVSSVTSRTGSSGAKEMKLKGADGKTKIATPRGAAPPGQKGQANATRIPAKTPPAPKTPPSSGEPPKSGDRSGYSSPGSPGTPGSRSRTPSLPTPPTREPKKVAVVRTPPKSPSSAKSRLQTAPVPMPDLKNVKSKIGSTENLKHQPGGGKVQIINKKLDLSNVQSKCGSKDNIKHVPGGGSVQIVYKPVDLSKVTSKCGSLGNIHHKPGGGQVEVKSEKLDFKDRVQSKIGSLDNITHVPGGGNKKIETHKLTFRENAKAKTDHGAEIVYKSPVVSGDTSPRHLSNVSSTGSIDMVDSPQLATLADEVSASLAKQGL

[2] = biological target: T2, aggregated synthetic Aβ40 (Homo sapiens, UniProt P05067); assay: Thiazin-red R displacement fluorescence assay on aggregated A-beta; assay type: binding; conditions: displacement of Thiazin-red R from aggregated Aβ40; compound 0.3 nM to 10000 nM; 30 min room temperature; Ex 531 nm/Em 595 nm
T2 construct: Synthetic Aβ40 is aggregated at a concentration of 50 μM
T2 sequence (P05067 672-711 limits assumed): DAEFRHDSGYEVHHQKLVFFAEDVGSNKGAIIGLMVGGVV

IC50 [1] [nM] | IC50 [2] [nM] | Compound
6 | 4160 | COc1cc(/C=c2\sc3nc(-c4cccc(OC(F)F)c4)cn3c2=O)cc(Cl)c1O [Example 62, 2-[1-(3-Chloro-4-hydroxy-5-methoxy-phenyl)-meth-(Z)-ylidene]-6-(3-(difluoromethoxy)-phenyl)-imidazo[2,1-b]thiazol-3-one]
24 | 198 | COc1cc(/C=c2\sc3nc(-c4ccc(F)c(C(F)(F)F)c4)cn3c2=O)cc(F)c1O [Example 42, 2-[1-(3-fluoro-4-hydroxy-5-methoxy-phenyl)-meth-(Z)-ylidene]-6-(4-fluoro-3-(trifluoromethyl)-phenyl)-imidazo[2,1-b]thiazol-3-one]
5 | 68 | COc1cc(/C=c2\sc3nc(-c4cc(C)nc(C)c4)cn3c2=O)cc(OC)c1O [Example 17, 2-[1-(4-Hydroxy-3,5-dimethoxy-phenyl)-meth-(Z)-ylidene]-6-(2,6-dimethyl-pyridin-4-yl)-imidazo[2,1-b]thiazol-3-one]
5 | 643 | COc1cc(/C=c2\sc3nc(-c4ccc(C(=O)NCCCF)cc4)cn3c2=O)cc(Cl)c1O [Example 117, 4-{2-[1-(3-Chloro-4-hydroxy-5-methoxy-phenyl)-meth-(Z)-ylidene]-3-oxo-2,3-dihydro-imidazo[2,1-b]thiazol-6-yl}-N-(3-fluoro-propyl)-benzamide]
6 | 24000 | COc1cc(/C=c2\sc3nc(-c4cccc(C#N)c4)cn3c2=O)cc(Cl)c1O [Example 44, 3-{2-[1-(3-Chloro-4-hydroxy-5-methoxy-phenyl)-meth-(Z)-ylidene]-3-oxo-2,3-dihydro-imidazo[2,1-b]thiazol-6-yl}-benzonitrile]
51 | 2320 | COc1cc(/C=c2\sc3nc(-c4ccccc4)cn3c2=O)cc(F)c1O [Example 43, 2-[1-(3-fluoro-4-hydroxy-5-methoxy-phenyl)-meth-(Z)-ylidene]-6-phenyl-imidazo[2,1-b]thiazol-3-one]
23.5 | 2670 | CCCOc1cc(/C=c2\sc3nc(-c4ccncc4)cn3c2=O)cc(F)c1O [Example 122, 2-[1-(3-Fluoro-4-hydroxy-5-propoxy-phenyl)-meth-(Z)-ylidene]-6-pyridin-4-yl-imidazo[2,1-b]thiazol-3-one]
41 | 718 | CCCOc1cc(/C=c2\sc3nc(-c4cccs4)cn3c2=O)cc(Cl)c1O [Example 132, 2-[1-(3-Chloro-4-hydroxy-5-propoxy-phenyl)-meth-(Z)-ylidene]-6-thiophen-2-yl-imidazo[2,1-b]thiazol-3-one]
26 | 328 | COc1cc(/C=c2\sc3nc(-c4ccc(C(=O)N(C)CCOCCF)cc4)cn3c2=O)cc(Cl)c1O [Example 23, 4-{2-[1-(3-Chloro-4-hydroxy-5-methoxy-phenyl)-meth-(Z)-ylidene]-3-oxo-2,3-dihydro-imidazo[2,1-b]thiazol-6-yl}-N-[2-(2-fluoro-ethoxy)-ethyl]-N-methyl-benzamide]
20 | 620 | COc1cc(/C=c2\sc3nc(-c4ccncc4)cn3c2=O)cc(F)c1O [Example 69, 2-[1-(3-Fluoro-4-hydroxy-5-methoxy-phenyl)-meth-(Z)-ylidene]-6-(pyridin-4-yl)-imidazo[2,1-b]thiazol-3-one]
28 | 1220 | COc1cc(/C=c2\sc3nc(-c4ccccc4C)cn3c2=O)cc(Cl)c1O [Example 10, 2-[1-(3-Chloro-4-hydroxy-5-methoxy-phenyl)-meth-(Z)-ylidene]-6-o-tolyl-imidazo[2,1-b]thiazol-3-one]
11 | 43 | COc1cc(/C=c2\sc3nc(-c4ccc(C(F)(F)F)c(F)c4)cn3c2=O)cc(OC)c1O [Example 29]
13 | 5550 | COc1cc(/C=c2\sc3nc(-c4c(F)cccc4F)cn3c2=O)cc(Cl)c1O [Example 105, 2-[1-(3-Chloro-4-hydroxy-5-methoxy-phenyl)-meth-(Z)-ylidene]-6-(2,6-difluoro-phenyl)-imidazo[2,1-b]thiazol-3-one]
9 | 218 | CCCN(C)C(=O)c1ccc(-c2cn3c(=O)/c(=C/c4cc(Cl)c(O)c(OC)c4)sc3n2)cc1 [Example 128, 4-{2-[1-(3-Chloro-4-hydroxy-5-methoxy-phenyl)-meth-(Z)-ylidene]-3-oxo-2,3-dihydro-imidazo[2,1-b]thiazol-6-yl}-N-methyl-N-propyl-benzamide]
16 | 1370 | COc1cc(/C=c2\sc3nc(-c4cc(F)cc(F)c4)cn3c2=O)cc(Cl)c1O [Example 49, 2-[1-(3-Chloro-4-hydroxy-5-methoxy-phenyl)-meth-(Z)-ylidene]-6-(3,5-difluoro-phenyl)-imidazo[2,1-b]thiazol-3-one]
4 | 395 | COc1cccc(-c2cn3c(=O)/c(=C/c4cc(Cl)c(O)c(OC)c4)sc3n2)c1 [Example 61, 2-[1-(3-Chloro-4-hydroxy-5-methoxy-phenyl)-meth-(Z)-ylidene]-6-(3-methoxy-phenyl)-imidazo[2,1-b]thiazol-3-one]
6 | 118 | COc1cc(/C=c2\sc3nc(-c4ccc(C(=O)N5CCC(F)CC5)cc4)cn3c2=O)cc(Cl)c1O [Example 127, 2-[1-(3-Chloro-4-hydroxy-5-methoxy-phenyl)-meth-(Z)-ylidene]-6-[4-(4-fluoro-piperidine-1-carbonyl)-phenyl]-imidazo[2,1-b]thiazol-3-one]
6 | 260 | COc1cc(/C=c2\sc3nc(-c4ccnc(C)c4)cn3c2=O)cc(F)c1O [Example 76, 2-[1-(3-Fluoro-4-hydroxy-5-methoxy-phenyl)-meth-(Z)-ylidene]-6-(2-methylpyridin-4-yl)-imidazo[2,1-b]thiazol-3-one]
2 | 7 | COc1cc(/C=c2\sc3nc(-c4ccc(Cl)cc4)cn3c2=O)cc(OC)c1O [Example 2, 6-(4-Chloro-phenyl)-2-[1-(4-hydroxy-3,5-dimethoxy-phenyl)-meth-(Z)-ylidene]-imidazo[2,1-b]thiazol-3-one]
6 | 552 | COc1cc(/C=c2\sc3nc(-c4cccc(OC(F)(F)F)c4)cn3c2=O)cc(Br)c1O [Example 37, 2-[1-(3-Bromo-4-hydroxy-5-methoxy-phenyl)-meth-(Z)-ylidene]-6-(3-trifluoromethoxy-phenyl)-imidazo[2,1-b]thiazol-3-one]
6 | 352 | CNC(=O)c1ccc(-c2cn3c(=O)/c(=C/c4cc(Cl)c(O)c(OC)c4)sc3n2)cc1 [Example 114, 4-{2-[1-(3-Chloro-4-hydroxy-5-methoxy-phenyl)-meth-(Z)-ylidene]-3-oxo-2,3-dihydro-imidazo[2,1-b]thiazol-6-yl}-N-methyl-benzamide]
19 | > 10000 | COc1cc(/C=c2\sc3nc(-c4cccc(C(=O)O)c4)cn3c2=O)cc(Cl)c1O [Example 104, 3-{2-[1-(3-Chloro-4-hydroxy-5-methoxy-phenyl)-meth-(Z)-ylidene]-3-oxo-2,3-dihydro-imidazo[2,1-b]thiazol-6-yl}-benzoic acid]
24 | 356 | COc1cc(/C=c2\sc3nc(-c4cccc(N5CCOCC5)c4)cn3c2=O)cc(Cl)c1O [Example 89, 2-[1-(3-Chloro-4-hydroxy-5-methoxy-phenyl)-meth-(Z)-ylidene]-6-(3-morpholinophenyl)-imidazo[2,1-b]thiazol-3-one]
12 | 226 | COc1cc(/C=c2\sc3nc(-c4ccc5c(c4)CC(=O)N5)cn3c2=O)cc(Cl)c1O [Example 102, 5-{2-[1-(3-Chloro-4-hydroxy-5-methoxy-phenyl)-meth-(Z)-ylidene]-3-oxo-2,3-dihydro-imidazo[2,1-b]thiazol-6-yl}-1,3-dihydro-indol-2-one]
20 | 238 | COc1cc(/C=c2\sc3nc(-c4cccnc4)cn3c2=O)cc(F)c1O [Example 71, 2-[1-(3-Fluoro-4-hydroxy-5-methoxy-phenyl)-meth-(Z)-ylidene]-6-(pyridin-3-yl)-imidazo[2,1-b]thiazol-3-one]
26 | 437 | COc1cc(/C=c2\sc3nc(-c4cccc(OC(F)(F)F)c4)cn3c2=O)cc(OC(C)C)c1O [Example 34, 2-[1-(4-Hydroxy-3-methoxy-5-isopropoxy-phenyl)-meth-(Z)-ylidene]-6-(3-trifluoromethoxy-phenyl)-imidazo[2,1-b]thiazol-3-one]
24 | 1160 | COc1cc(/C=c2\sc3nc(-c4ccc(NC(C)=O)cc4)cn3c2=O)cc(Cl)c1O [Example 103, N-(4-{2-[1-(3-Chloro-4-hydroxy-5-methoxy-phenyl)-meth-(Z)-ylidene]-3-oxo-2,3-dihydro-imidazo[2,1-b]thiazol-6-yl}-phenyl)-acetamide]
3 | 2630 | CCCNC(=O)c1cccc(-c2cn3c(=O)/c(=C/c4cc(Cl)c(O)c(OC)c4)sc3n2)c1 [Example 107, 3-{2-[1-(3-Chloro-4-hydroxy-5-methoxy-phenyl)-meth-(Z)-ylidene]-3-oxo-2,3-dihydro-imidazo[2,1-b]thiazol-6-yl}-N-propyl-benzamide]
2 | 32 | COc1cc(/C=c2\sc3nc(-c4ccc(Cl)cc4)cn3c2=O)cc(Cl)c1O [Example 6, 6-(4-Chloro-phenyl)-2-[1-(3-chloro-4-hydroxy-5-methoxy-phenyl)-meth-(Z)-ylidene]-imidazo[2,1-b]thiazol-3-one]
14 | 325 | COc1ccc(-c2cn3c(=O)/c(=C/c4cc(Cl)c(O)c(OC)c4)sc3n2)cc1OC [Example 99, 2-[1-(3-Chloro-4-hydroxy-5-methoxy-phenyl)-meth-(Z)-ylidene]-6-(3,4-dimethoxy-phenyl)-imidazo[2,1-b]thiazol-3-one]
